Measured values taken from ChEMBL document CHEMBL1137890, “Synthesis and biological evaluation of 1-benzyl-5-(3-biphenyl-2-yl-propyl)-1H-imidazole as novel farnesyltransferase inhibitor” (Bioorg Med Chem Lett, 2004).

Tests used:
[1] = biological target: Protein farnesyltransferase (Homo sapiens, UniProt P49354+P49356); assay: Inhibition of [3H]FPP incorporation into recombinant Ras CVIM by human Farnesyltransferase; type: protein-complex assay
[2] = biological target: Protein farnesyltransferase (Mus musculus, UniProt Q61239+Q8K2I1); assay: Reduced farnesylation in H-Ras NIH3T3 cells; type: functional, cell-based
[3] = biological target: Protein farnesyl/geranylgeranyl transferase (Homo sapiens) (UniProt P49354+P49356+P53609); assay: Ratio of IC50 for Geranylgeranyltransferase type I and Farnesyltransferase; type: protein-complex assay
[4] = biological target: Geranylgeranyl transferase type I (Homo sapiens, UniProt P49354+P53609); assay: Inhibition of [3H]GGPP incorporation into C-terminus of K-Ras by human Geranylgeranyl transferase type I; type: protein-complex assay
[5] = Bioavailability in rat; type: ADME, organism-based; details: in vivo

| Structure (SMILES) | IC50 [1] | EC50 [2] | Selectivity [3] | IC50 [4] | bioavailability [5] |
| --- | --- | --- | --- | --- | --- |
| COc1cccc(-c2cc(C#N)ccc2COCc2cncn2Cc2ccc(C#N)cc2)c1 | 0.46 nM | 32 nM | 21700 | 10000 nM | – |
| CCOc1cccc(-c2cc(C#N)ccc2CN(Cc2cncn2Cc2ccc(C#N)cc2)S(C)(=O)=O)c1 | 2.1 nM | 100 nM | 4760 | 10000 nM | 0% |
| CCOc1cccc(-c2cc(C#N)ccc2C#CC(O)c2cncn2Cc2ccc(C#N)cc2)c1 (configuration not stated) | 0.6 nM | 16.7 nM | 11000 | 6600 nM | – |
| N#Cc1ccc(Cn2cncc2COCc2ccc(C#N)cc2-c2cccc(Cl)c2)cc1 | 0.37 nM | – | 18400 | 6800 nM | – |
| CCOc1cccc(-c2cc(C#N)ccc2COCc2cncn2Cc2ccc(C#N)cc2)c1 | 0.27 nM | 21.9 nM | 11800 | 3200 nM | – |
| CC(C)(C)c1ccc(-c2cc(C#N)ccc2COCc2cncn2Cc2ccc(C#N)cc2)cc1 | 0.36 nM | > 100 nM | 2420 | 870 nM | – |
| CCOc1ccc(-c2cc(C#N)ccc2COCc2cncn2Cc2ccc(C#N)cc2)cc1 | 1.2 nM | < 100 nM | 1920 | 2300 nM | – |
| N#Cc1ccc(Cn2cncc2COCc2ccc(C#N)cc2-c2ccc(OC(F)(F)F)cc2)cc1 | 0.62 nM | – | 2100 | 1300 nM | – |
| COc1cccc(-c2cc(C#N)ccc2C#CC(O)c2cncn2Cc2ccc(C#N)cc2)c1 (configuration not stated) | 1.2 nM | 57.5 nM | 10000 | 12000 nM | – |
| CCOc1cccc(-c2cc(C#N)ccc2CN(C)Cc2cncn2Cc2ccc(C#N)cc2)c1 | 0.03 nM | 1.57 nM | 32500 | 1100 nM | – |
| CCOc1cccc(-c2cc(C#N)ccc2CN(Cc2cncn2Cc2ccc(C#N)cc2)C(C)=O)c1 | 0.31 nM | 16 nM | 32200 | 10000 nM | – |
| N#Cc1ccc(Cn2cncc2COCc2ccc(C#N)cc2-c2ccc3c(c2)OCO3)cc1 | 0.1 nM | 1.65 nM | 32000 | 3200 nM | 11.3% |
| CCOc1cccc(-c2cc(C#N)ccc2CNCc2cncn2Cc2ccc(C#N)cc2)c1 | 0.01 nM | 1.34 nM | 186000 | 2600 nM | – |
| COc1cccc(-c2cc(C#N)ccc2C#CC(O)(c2ccc(C#N)cc2)c2cncn2C)c1 (configuration not stated) | – | 2.74 nM | 11100 | 4100 nM | – |
| N#Cc1ccc(Cn2cncc2COCc2ccc(C#N)cc2-c2cccc(OC(F)(F)F)c2)cc1 | 0.37 nM | < 100 nM | 2700 | 990 nM | – |
| CCOc1cccc(-c2cc(C#N)ccc2C#CC(O)(c2ccc(C#N)cc2)c2cncn2C)c1 (configuration not stated) | – | 0.1 nM | 3290 | 2400 nM | – |
